Drawing on ChEMBL document CHEMBL1139287, “Spiro(imidazo[1,2-a]pyrano[2,3-c]pyridine-9-indenes) as inhibitors of gastric acid secretion” (Bioorg Med Chem, 2009), this text covers logD and pKa for 13 compounds.

A short description of data set [1]: physchem. To be noted: octanol/water, pH 7.4.
Description: Octanol-water distribution coefficient, log D at pH 7.4 at 25 degC by potentiometric titration method
Data set [2] can be described thus: physchem.
Description: Dissociation constant, pKa of the compound
The nature of data set [3]: Octanol-water distribution coefficient, log D by HPLC. Format: physicochemical.

SMILES strings stand for the structures.

For orientation: logD means the decadic logarithm of the distribution of all forms, ionised or not, between an organic phase and buffer at a given pH. A low value points to lower lipophilicity. Usually pKa stands for the pH at which an ionisable group is half protonated. In “physchem [1]”, `Cc1nc2c3c(c(C(=O)NC4CC4)cn2c1C)CCC1(CCc2ccccc21)O3` (stereo not given) returned a logD of 3.64. In “physchem [2]”, this compound yielded a pKa of 6.76.
`Cc1nc2c3c(c(C(=O)N(C)C)cn2c1C)CCC1(Cc2ccccc2C1)O3` had a logD in data set [3] of 2.9. Besides, in “physchem [2]”, the pKa was 6.84.
For the compound `CNC(=O)c1cn2c(C)c(C)nc2c2c1CCC1(CCc3ccccc31)O2` (stereo not given), the logD in “physchem [1]” came out at 3.29. The compound also registered a pKa in the data set “physchem [2]” of 6.8.
The compound `Cc1nc2c3c(c(C(=O)N4CCCC4)cn2c1C)CCC1(CCc2ccccc21)O3` (stereo not given) came in with a logD in the data set “physchem [1]” of 3.36. Also, in “physchem [2]”, the pKa was 6.88.
For `Cc1nc2c3c(c(C(=O)N(C)C)cn2c1C)CCC1(CCc2ccccc21)O3` (racemic), in that order: 2.91 and 6.84.
In turn, `Cc1nc2c3c(c(C(=O)N(C)C)cn2c1C)CCC1(CCc2cc(F)ccc21)O3` (stereo not given) had a logD in data set [3] of 3.
Compound `CON(C)C(=O)c1cn2c(C)c(C)nc2c2c1CCC1(CCc3ccccc31)O2` (stereo not given) returned a logD in “physchem [1]” of 3.15. In addition, the pKa in “physchem [2]” was 6.63.
Turning to `Cc1cccc2c1CCC21CCc2c(C(=O)N(C)C)cn3c(C)c(C)nc3c2O1` (stereo not given), in “physchem [1]”, the logD was 3.42. This compound also registered a pKa in “physchem [2]” of 6.87.
Consider `Cc1nc2c3c(c(C(=O)Nc4ccccc4)cn2c1C)CCC1(CCc2ccccc21)O3` (stereo not given), for which the logD in the data set “physchem [1]” came to 4.7. In the data set “physchem [2]”, this compound had a pKa of 6.76.
Consider `Cc1nc2c3c(c(C(=O)N4CCCCC4)cn2c1C)CCC1(CCc2ccccc21)O3` (stereo not given), for which, in the data set “physchem [1]”, the logD came to 3.87. This compound registered a pKa in “physchem [2]” of 6.81.
In “physchem [1]”, `Cc1nc2c3c(c(C(=O)N4CCOCC4)cn2c1C)CCC1(CCc2ccccc21)O3` (stereo not given) showed a logD of 2.85. In addition, in the data set “physchem [2]”, the pKa was found to be 6.74.
`Cc1nc2c3c(c(C(=O)N4CCC4)cn2c1C)CCC1(CCc2ccccc21)O3` (stereo not given) gave a logD in the data set “physchem [1]” of 3.19. The compound also gave a pKa in the data set “physchem [2]” of 6.81.
For `Cc1nc2c3c(c(C(=O)N4CC(F)(F)C4)cn2c1C)CCC1(CCc2ccccc21)O3` (stereo not given), in that order: 3.57 and 6.55.
